Experimental data: ChEMBL document CHEMBL1131923, “Synthesis and structure-activity relationships of a series of novel thiazoles as inhibitors of aminoacyl-tRNA synthetases” (Bioorg Med Chem Lett, 1999)
Each block holds one compound with its values, some of them ahead of it.

How the values were obtained:
[1] = molecular target: T1, Isoleucine--tRNA ligase, cytoplasmic (Homo sapiens, UniProt P41252); assay: Compound tested for the inhibition of human isoleucyl-tRNA synthetase
T1 sequence (P41252 whole entry): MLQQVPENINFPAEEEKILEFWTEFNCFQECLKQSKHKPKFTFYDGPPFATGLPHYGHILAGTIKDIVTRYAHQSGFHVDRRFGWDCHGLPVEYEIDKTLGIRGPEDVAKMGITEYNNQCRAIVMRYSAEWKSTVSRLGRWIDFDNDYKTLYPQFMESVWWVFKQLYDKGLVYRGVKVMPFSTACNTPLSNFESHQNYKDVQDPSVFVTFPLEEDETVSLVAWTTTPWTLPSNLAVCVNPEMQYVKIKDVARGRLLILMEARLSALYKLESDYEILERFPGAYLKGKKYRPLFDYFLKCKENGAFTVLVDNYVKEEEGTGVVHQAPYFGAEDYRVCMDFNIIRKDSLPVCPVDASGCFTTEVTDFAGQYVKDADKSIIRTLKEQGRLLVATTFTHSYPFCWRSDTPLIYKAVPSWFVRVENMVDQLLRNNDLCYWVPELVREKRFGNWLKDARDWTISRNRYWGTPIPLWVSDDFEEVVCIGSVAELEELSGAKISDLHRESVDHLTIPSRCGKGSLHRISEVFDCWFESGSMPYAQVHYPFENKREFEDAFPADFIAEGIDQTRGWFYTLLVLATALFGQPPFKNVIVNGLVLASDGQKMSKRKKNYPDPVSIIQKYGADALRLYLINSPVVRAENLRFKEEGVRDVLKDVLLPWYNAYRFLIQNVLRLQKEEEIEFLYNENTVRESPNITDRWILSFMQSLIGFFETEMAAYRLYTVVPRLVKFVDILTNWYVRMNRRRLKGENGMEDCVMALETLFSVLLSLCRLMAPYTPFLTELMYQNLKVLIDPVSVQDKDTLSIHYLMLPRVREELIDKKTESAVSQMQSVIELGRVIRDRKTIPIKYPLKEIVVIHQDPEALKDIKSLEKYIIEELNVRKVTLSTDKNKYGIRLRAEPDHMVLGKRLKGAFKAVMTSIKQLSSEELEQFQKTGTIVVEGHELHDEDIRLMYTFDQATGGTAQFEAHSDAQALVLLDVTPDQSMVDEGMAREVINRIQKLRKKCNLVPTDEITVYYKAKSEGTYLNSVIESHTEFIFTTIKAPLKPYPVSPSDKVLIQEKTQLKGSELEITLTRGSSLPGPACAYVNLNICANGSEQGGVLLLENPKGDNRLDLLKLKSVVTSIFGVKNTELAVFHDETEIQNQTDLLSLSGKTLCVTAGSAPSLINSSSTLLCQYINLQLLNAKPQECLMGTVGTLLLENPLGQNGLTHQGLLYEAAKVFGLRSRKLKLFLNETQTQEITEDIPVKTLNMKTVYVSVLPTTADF

[2] = Selectivity ratio of human to that of Escherichia coli was determined for isoleucyl-tRNA synthetase
[3] = molecular target: T2, Isoleucine--tRNA ligase (Staphylococcus aureus, UniProt P41972); assay: Compound tested for the inhibition of Staphylococcus aureus isoleucyl-tRNA synthetase
T2 sequence (P41972 whole entry): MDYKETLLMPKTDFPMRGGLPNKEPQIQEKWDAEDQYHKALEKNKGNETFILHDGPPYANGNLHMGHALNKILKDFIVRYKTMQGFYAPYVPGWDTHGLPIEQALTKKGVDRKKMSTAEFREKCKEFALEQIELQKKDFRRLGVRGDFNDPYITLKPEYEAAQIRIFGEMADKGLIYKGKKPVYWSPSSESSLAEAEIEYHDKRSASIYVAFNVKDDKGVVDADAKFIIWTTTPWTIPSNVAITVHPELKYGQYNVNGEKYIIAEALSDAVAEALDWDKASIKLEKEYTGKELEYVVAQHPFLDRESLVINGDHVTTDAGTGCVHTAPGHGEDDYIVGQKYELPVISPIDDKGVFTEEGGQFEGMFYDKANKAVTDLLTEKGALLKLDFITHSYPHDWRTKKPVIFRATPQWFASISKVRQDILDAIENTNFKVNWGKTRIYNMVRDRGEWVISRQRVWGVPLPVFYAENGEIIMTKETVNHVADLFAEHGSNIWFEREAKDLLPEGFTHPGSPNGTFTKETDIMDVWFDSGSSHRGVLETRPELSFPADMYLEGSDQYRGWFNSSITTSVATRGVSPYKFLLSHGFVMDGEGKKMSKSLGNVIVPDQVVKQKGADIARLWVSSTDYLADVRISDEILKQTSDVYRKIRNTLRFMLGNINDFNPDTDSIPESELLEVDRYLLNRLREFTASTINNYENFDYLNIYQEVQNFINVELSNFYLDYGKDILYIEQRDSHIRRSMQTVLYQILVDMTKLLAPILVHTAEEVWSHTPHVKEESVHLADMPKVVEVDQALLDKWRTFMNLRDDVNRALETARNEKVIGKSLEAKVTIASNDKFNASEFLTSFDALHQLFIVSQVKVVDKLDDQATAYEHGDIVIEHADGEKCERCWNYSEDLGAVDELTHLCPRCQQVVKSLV

[4] = molecular target: S. aureus MRSA LeuRS (Staphylococcus aureus, UniProt P67513); assay: Compound tested for the inhibition of Staphylococcus aureus Leucyl-tRNA synthetase
[5] = molecular target: Leucine--tRNA ligase, cytoplasmic (Homo sapiens, UniProt Q9P2J5); assay: Compound tested for the inhibition of human Leucyl-tRNA synthetase
Chain of Leucine--tRNA ligase, cytoplasmic (Q9P2J5 whole entry): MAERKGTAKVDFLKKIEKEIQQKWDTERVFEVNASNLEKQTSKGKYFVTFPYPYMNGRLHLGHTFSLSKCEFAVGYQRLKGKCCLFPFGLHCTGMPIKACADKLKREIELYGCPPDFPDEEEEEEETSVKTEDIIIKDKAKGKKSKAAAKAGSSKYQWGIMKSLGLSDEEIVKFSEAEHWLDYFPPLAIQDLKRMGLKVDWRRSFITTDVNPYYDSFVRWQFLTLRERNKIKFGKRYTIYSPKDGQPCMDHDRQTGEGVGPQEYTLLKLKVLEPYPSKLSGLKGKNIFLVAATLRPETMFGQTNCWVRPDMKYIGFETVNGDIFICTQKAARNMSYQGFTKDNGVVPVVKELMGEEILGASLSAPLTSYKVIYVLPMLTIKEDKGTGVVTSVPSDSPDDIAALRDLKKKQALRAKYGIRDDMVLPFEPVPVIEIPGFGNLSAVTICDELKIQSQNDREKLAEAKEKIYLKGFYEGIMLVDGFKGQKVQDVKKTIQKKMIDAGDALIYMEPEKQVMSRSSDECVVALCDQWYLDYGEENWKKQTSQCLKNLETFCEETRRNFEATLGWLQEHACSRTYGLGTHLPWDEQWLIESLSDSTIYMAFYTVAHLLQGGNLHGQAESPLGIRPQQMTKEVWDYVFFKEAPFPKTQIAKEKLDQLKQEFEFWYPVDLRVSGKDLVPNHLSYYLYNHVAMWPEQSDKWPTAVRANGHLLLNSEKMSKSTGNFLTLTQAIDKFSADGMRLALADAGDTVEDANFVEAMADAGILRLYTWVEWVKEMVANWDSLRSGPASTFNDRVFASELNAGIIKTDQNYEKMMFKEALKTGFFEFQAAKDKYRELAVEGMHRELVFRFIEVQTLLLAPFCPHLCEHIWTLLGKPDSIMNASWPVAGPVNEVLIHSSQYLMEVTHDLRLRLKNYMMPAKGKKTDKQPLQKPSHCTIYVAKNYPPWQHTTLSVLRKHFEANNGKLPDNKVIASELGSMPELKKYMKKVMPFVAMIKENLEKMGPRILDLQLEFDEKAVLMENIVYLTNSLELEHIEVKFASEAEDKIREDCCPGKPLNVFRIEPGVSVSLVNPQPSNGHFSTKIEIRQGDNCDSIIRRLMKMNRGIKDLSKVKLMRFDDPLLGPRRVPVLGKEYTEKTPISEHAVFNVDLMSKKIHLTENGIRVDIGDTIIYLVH

[6] = Selectivity ratio of human to that of Escherichia coli was determined for leucyl-tRNA synthetase

Structure (SMILES): CCC(C)[C@H](N)C(=O)NS(=O)(=O)OC[C@H]1O[C@@H](c2nc(-c3ccc(OC)cc3)cs2)[C@H](O)[C@@H]1O (stereo not given in full)
IC50 [1]: 200 nM
Selectivity [2]: 2
IC50 [3]: 100 nM

Structure (SMILES): CCC(C)[C@H](N)C(=O)NS(=O)(=O)OC[C@H]1O[C@@H](c2nc(-c3cc(C#N)co3)cs2)[C@H](O)[C@@H]1O (stereo not given in full)
IC50 [1]: 120 nM
Selectivity [2]: 1
IC50 [3]: 240 nM

Structure (SMILES): CC[C@H](C)[C@H](N)C(=O)NS(=O)(=O)OC[C@H]1O[C@@H](c2nc(-c3ccccc3)cs2)[C@H](O)[C@@H]1O
IC50 [1]: 330 nM
IC50 [3]: 8000 nM

Structure (SMILES): CCC(C)[C@H](N)C(=O)NS(=O)(=O)OC[C@H]1O[C@@H](c2nc(-c3ccc4cc(OC)ccc4c3)cs2)[C@H](O)[C@@H]1O (stereo not given in full)
IC50 [1]: 400 nM
Selectivity [2]: 4
IC50 [3]: 130 nM

Structure (SMILES): CCC(C)[C@H](N)C(=O)NS(=O)(=O)OC[C@H]1O[C@@H](c2nc(CCc3ccccc3)cs2)[C@H](O)[C@@H]1O (stereo not given in full)
IC50 [1]: 300 nM
Selectivity [2]: 10
IC50 [3]: 40 nM

Structure (SMILES): CCC(C)[C@H](N)C(=O)NS(=O)(=O)OC[C@H]1O[C@@H](c2nc(-c3ccccc3OC)cs2)[C@H](O)[C@@H]1O (stereo not given in full)
IC50 [1]: 100 nM
Selectivity [2]: 3.3
IC50 [3]: 300 nM

Structure (SMILES): CCC(C)[C@H](N)C(=O)NS(=O)(=O)OC[C@H]1O[C@@H](c2nc(-c3cccc(OC)c3)cs2)[C@H](O)[C@@H]1O (stereo not given in full)
IC50 [1]: 34 nM
Selectivity [2]: 2.3
IC50 [3]: 50 nM

Results, then the compound that gave them:

IC50 [4]: > 54 nM
IC50 [5]: 600 nM
Selectivity [6]: 375
Structure (SMILES): CC(C)C[C@H](N)C(=O)NS(=O)(=O)OC[C@H]1O[C@@H](c2nc(-c3ccc(Oc4ccccc4)cc3)cs2)[C@H](O)[C@@H]1O

IC50 [1]: 370 nM
Selectivity [2]: 8.2
IC50 [3]: 270 nM
Structure (SMILES): CCC(C)[C@H](N)C(=O)NS(=O)(=O)OC[C@H]1O[C@@H](c2nc(-c3ccc(Oc4ccccc4)cc3)cs2)[C@H](O)[C@@H]1O (stereo not given in full)

IC50 [4]: 100 nM
IC50 [5]: 1150 nM
Selectivity [6]: 192
Structure (SMILES): CC(C)C[C@H](N)C(=O)NS(=O)(=O)OC[C@H]1O[C@@H](c2nc(CCc3ccc(Oc4ccccc4)cc3)cs2)[C@H](O)[C@@H]1O

IC50 [4]: 90 nM
IC50 [5]: 730 nM
Selectivity [6]: > 365
Structure (SMILES): CC(C)C[C@H](N)C(=O)NS(=O)(=O)OC[C@H]1O[C@@H](c2nc(CCc3ccccc3)cs2)[C@H](O)[C@@H]1O

IC50 [1]: 1020 nM
Selectivity [2]: 9.3
IC50 [3]: 120 nM
Structure (SMILES): CCC(C)[C@H](N)C(=O)NS(=O)(=O)OC[C@H]1O[C@@H](c2nc(CCc3ccc(Oc4ccccc4)cc3)cs2)[C@H](O)[C@@H]1O (stereo not given in full)
